We go through three compounds from patent publication US8247566B2, “Crystalline solvate of omeprazole sodium” (Lek Pharmaceuticals d.d., priority 2005, dated 2012).

A short description of one data set: Solubility in water. The format is physicochemical.
Data set [1] is described as follows: Solid state / storage stability. The format is physicochemical. An excerpt: The stability of omeprazole sodium form A obtained by the processes of the present invention may be determined by standard protocol for characterisation of stability of a pharmaceutically active substance (EU: Adopted by CPMP, March 2003, issued as CPMP/ICH/2736/99—“Committee for proprietary medical products; Note for Guidance on ICH Q1A (R2) Stability testing guidelines: Stability testing of new drug substances and products”). Packed omeprazole sodium form A was aged for a definite period of time (1 month, 3 months, 6 months) under accelerated conditions of aging (at a temperature of 40° C. and 75% relative humidity which is a standard accelerated condition for stability testing of pharmaceutical formulations) and/or stress condition of aging (at a temperature of 60° C. which is a standard stress condition for stability testing of pharmaceutically active substances). Determination of absorbance measured according to the PhEur method (PhEur 3 Suppl 2000) was used as a criterion for evaluation of the sample quality during stability testing. It has previously been shown that measurement of absorbance is a more sensitive method for monitoring the process of omeprazole sodium decomposition than, for example, detection of present impurities using chromatographic methods (PhEur 3 Suppl 2000).

The conditions of data set [2]: prior art description (US 6,207,188, US 2004/0224987); cited from earlier work.
For data set [3] the following is noted: prior art description (EP-B-124 495, US 6,207,188, US 2004/0224987); cited from earlier work.

Turning to `COc1ccc2[n-]c([S+]([O-])Cc3ncc(C)c(OC)c3C)nc2c1.[Na+]` (centres unmarked) [omeprazole sodium form A, omeprazole sodium], the solubility in water entry in “Solubility in water” is listed as “highly soluble in water”. In data set [1], the “stability on storage (chemical composition, hygroscopicity, solubility, crystalline form)” value was “stable”. Regarding `COc1ccc2[n-]c([S+]([O-])Cc3ncc(C)c(OC)c3C)nc2c1.O.[Na+]` (centres unmarked) [omeprazole sodium form B, omeprazole sodium monohydrate salt], in data set [2], the “thermodynamic stability as described in prior art” value is “thermodynamically stable”. Besides, in data set [3], the “hygroscopicity as described in prior art” value is listed as “non-hygroscopic”.

For the compound `COc1ccc2[n-]c([S+]([O-])Cc3ncc(C)c(OC)c3C)nc2c1.[Na+]` (centres unmarked) [omeprazole sodium form E, omeprazole sodium], the “stability under special conditions” value in data set [1] (stored under nitrogen atmosphere) is “stable compounds under special conditions”.
